One test concerns the target DGKζ (Homo sapiens (Human), UniProt Q13574). In words: Biochemical DGK IC50 assay, DGKζ ADP-Glo assay. The note with it: 0.5 nM enzyme, 140 μM ATP, 80 μM DAG; read-out: DGKζ ADP-Glo assay IC50. How it is done:
(§1) Enzymatic reactions of DGKζ, DGKα and DGKδ were performed using ADP-Glo assay with lipid micelle substrate. […] Full length DGKα (D21-10BG, SignalChem) and full length DGKδ (D23-10G, SignalChem) were purchased. Lipid micelle was prepared by dissolving DAG (Sigma, 317505-10MG) and PS (Sigma, P7769-100MG) with chloroform which was furtherly removed by rotary evaporation. The resulted product was resuspended in buffer containing 25 mM HEPES pH 7.0, 0.5 mM EDTA and 160 mM Octyl β-D glucopyranoside by vigorous mixing and ultrasonic (IID, Scientz).
(§2) The ranges of compounds final concentration were 1.55˜10000 nM or 23.3˜150000 nM. 3 μL 2× enzyme solution was added to wells.
Human His-TEV-DGK-zeta-pFastBac1 and human baculovirus samples was generated using the Bac-to-Bac baculovirus expression system (Invitrogen) according to the manufacturer's protocol. The DNA used for expression of DGK-zeta, have SEQ ID Nos: 1. Baculovirus amplification was achieved using infected SF9 cells at 1:2000 virus/cells ratios, and grown for 96 hours at 27° C. post-transfected.
The expression scaled up for each protein was carried out in the […] from CORNING. 4 L of 3×10^6 cells/mL Sf9 cells (Expression System, Invitrogen) grown in SF900™ II SFM insect medium (Expression System) was infected with virus stock at 1:200 virus/cells ratio, and grown for 48 hours at 27° C. post-transfection. The infected cell culture was harvested by centrifugation at 6000 rpm for 15 min 4° C. in a SORVALL LYNX6000 centrifuge. The cell pellets were stored at −80° C.
Full length human DGKζ produced as described above, was purified from Sf9 baculovirus-infected insect cell paste. The cells were lysed using sonication method, and the lysates were clarified by centrifugation.
In general terms: ADP-Glo first removes unused ATP, then detects ADP through luciferase.

A further test has as its target DGKα (Homo sapiens (Human), UniProt P23743). The test is described as follows: Biochemical DGK IC50 assay, DGKα ADP-Glo assay. Conditions: 7.5 nM enzyme, 140 μM ATP, 80 μM DAG. How it is done: as §1, §2

This is an account of results in patent US20240270751A1, “Pyrazolopyridinone Compounds” (BeiGene Ltd., priority 2021, published 2024).

Structures are written as SMILES.

DGKζ, sequence (Q13574 other isoform, or with tags, fused parts or gaps): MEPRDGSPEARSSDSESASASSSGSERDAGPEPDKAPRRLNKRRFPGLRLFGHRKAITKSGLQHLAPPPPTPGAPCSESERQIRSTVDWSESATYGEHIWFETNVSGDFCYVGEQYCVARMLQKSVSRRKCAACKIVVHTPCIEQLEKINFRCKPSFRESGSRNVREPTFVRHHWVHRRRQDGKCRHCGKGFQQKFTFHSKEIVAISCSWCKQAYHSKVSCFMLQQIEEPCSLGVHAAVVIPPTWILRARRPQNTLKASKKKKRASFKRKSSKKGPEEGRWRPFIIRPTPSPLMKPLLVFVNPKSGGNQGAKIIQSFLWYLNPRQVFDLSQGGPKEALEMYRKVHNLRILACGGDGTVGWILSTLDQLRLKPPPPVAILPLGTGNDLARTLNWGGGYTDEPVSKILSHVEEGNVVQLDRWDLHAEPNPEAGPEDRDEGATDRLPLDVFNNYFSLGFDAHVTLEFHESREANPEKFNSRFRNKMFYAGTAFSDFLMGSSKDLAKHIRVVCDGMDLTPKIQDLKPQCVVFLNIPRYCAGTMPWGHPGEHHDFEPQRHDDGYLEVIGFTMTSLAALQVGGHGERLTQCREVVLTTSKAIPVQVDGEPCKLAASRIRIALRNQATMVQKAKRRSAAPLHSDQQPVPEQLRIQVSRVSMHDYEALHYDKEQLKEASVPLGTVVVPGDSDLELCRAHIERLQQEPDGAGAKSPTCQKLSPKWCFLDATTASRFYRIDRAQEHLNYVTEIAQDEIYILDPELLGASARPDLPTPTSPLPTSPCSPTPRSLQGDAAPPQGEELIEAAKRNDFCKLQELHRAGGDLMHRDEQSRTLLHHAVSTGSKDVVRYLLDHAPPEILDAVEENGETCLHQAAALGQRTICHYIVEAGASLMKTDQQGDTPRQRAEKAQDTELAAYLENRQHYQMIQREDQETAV
DGKα, sequence (P23743 whole entry): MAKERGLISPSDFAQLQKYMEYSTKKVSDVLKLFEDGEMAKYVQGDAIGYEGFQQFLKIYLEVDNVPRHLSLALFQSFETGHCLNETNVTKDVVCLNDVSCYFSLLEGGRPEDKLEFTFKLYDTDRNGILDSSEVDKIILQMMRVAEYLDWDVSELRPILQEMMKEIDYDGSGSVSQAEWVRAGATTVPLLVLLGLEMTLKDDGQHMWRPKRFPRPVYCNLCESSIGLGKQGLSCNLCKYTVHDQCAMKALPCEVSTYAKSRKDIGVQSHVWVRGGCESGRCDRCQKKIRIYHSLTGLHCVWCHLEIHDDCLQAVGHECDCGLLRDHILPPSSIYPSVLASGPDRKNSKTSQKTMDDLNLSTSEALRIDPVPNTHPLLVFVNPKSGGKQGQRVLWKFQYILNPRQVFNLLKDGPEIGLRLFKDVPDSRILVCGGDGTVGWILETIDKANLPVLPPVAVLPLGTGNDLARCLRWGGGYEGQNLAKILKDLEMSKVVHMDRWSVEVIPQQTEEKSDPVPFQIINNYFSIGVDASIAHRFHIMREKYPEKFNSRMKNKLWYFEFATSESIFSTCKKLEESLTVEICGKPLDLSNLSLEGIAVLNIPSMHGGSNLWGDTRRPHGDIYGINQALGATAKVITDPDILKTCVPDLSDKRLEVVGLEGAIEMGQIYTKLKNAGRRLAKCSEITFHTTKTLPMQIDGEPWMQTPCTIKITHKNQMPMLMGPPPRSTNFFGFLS

For the compound `COC(=O)C1CN(c2cc(=O)n(C)c3cn(CC#N)nc23)CCN1[C@@H](C)c1ccc2nccnc2c1` (single isomer, unassigned) [Compound A173a], the IC50 on DGKζ is 0.502 µM; on DGKα, over 10 µM.

On to `CC(c1ccc2nccnc2c1)N1C[C@H](C)N(c2cc(=O)n(C)c3cn(S(C)(=O)=O)nc23)C[C@H]1C` (some centres unmarked) [Compound A13], for which the IC50 at DGKζ came out at 3.7 µM; at DGKα, 5.9 µM.

With `CC[C@H]1CN(C(C)c2ncc(OC(F)(F)F)cc2F)[C@H](CC)CN1c1cc(=O)n(C)c2cn(CC#N)nc12` (single isomer, unassigned) [Compound A362a], the IC50 was found to be 2.51 µM at DGKζ and 0.922 µM against DGKα.

For `CC(OC(F)F)c1cc(F)ccc1C(C)N1C[C@H](C)N(c2cc(=O)n(C)c3cn(CC#N)nc23)C[C@H]1C` (stereo partly drawn) [Compound A328, 2-(7-((2S,5R)-4-(1-(2-(1-(difluoromethoxy)ethyl)-4-fluorophenyl)ethyl)-2,5-dimethylpiperazin-1-yl)-4-methyl-5-oxo-4,5-dihydro-2H-pyrazolo[4,3-b]pyridin-2-yl)acetonitrile], the IC50 on DGKζ was 0.143 µM; at DGKα, 83 µM.

Consider `CC[C@H]1CN(C(C)c2ccc(C(F)(F)F)cc2)[C@H](CC)CN1c1cc(=O)n(C)c2cn(CC#N)nc12` (single isomer, unassigned) [Compound A103b], for which the IC50 was 2.69 µM on DGKζ and 0.809 µM at DGKα.

Regarding `CC[C@H]1CN(C(C)c2cnc(C)cn2)[C@H](CC)CN1c1cc(=O)n(C)c2cn(CC#N)nc12` (some centres unmarked) [Compound A356], the figures for the IC50 on DGKζ and against DGKα were 1.57 µM and 0.635 µM, respectively.

As to `CC(c1ccc(F)cc1C(F)F)N1C[C@H](C)N(c2cc(=O)n(C)c3cn(CC#N)nc23)C[C@H]1C` (some centres unmarked) [Compound A252], the values for the half-inhibitory concentration (IC50) at DGKζ and on DGKα were 1.37 µM and over 10 µM, respectively.

Regarding `CC(c1ccc2nccnc2c1)N1C[C@H](CCO)N(c2cc(=O)n(C)c3cn(CC#N)nc23)C[C@H]1C` (stereo partly drawn) [Compound A145, 2-(7-((2S,5R)-2-(2-hydroxyethyl)-5-methyl-4-(1-(quinoxalin-6-yl)ethyl)piperazin-1-yl)-4-methyl-5-oxo-4,5-dihydro-2H-pyrazolo[4,3-b]pyridin-2-yl)acetonitrilecetonitrile], the IC50 at DGKζ came to 0.055 µM; at DGKα it was 20.3 µM.

For `CC[C@@H]1CN(c2cc(=O)n(C)c3cn(CC#N)nc23)[C@@H](C)CN1C(C)c1ccc(F)cc1OC` (stereo partly drawn) [Compound A137, 2-(7-((2S,5R)-5-ethyl-4-(1-(4-fluoro-2-methoxyphenyl)ethyl)-2-methylpiperazin-1-yl)-4-methyl-5-oxo-4,5-dihydro-2H-pyrazolo[4,3-b]pyridin-2-yl)acetonitrile], the figures for the half-maximal inhibitory concentration (IC50) on DGKζ and against DGKα were 0.106 µM and over 10 µM, respectively.

Turning to `CC[C@H]1CN(C(C)c2ccc(CN3CCC(F)(F)CC3)cc2)[C@H](CC)CN1c1cc(=O)n(C)c2cn(CC#N)nc12` (some centres unmarked) [Compound A344], the IC50 on DGKζ turned out to be 0.198 µM; against DGKα, 0.108 µM.

As for `CC[C@H]1CN(C(C)c2ccccc2COC)[C@H](CC)CN1c1cc(=O)n(C)c2cn(CC#N)nc12` (some centres unmarked) [Compound A107], the 50% inhibitory concentration (IC50) was 0.272 µM at DGKζ and over 10 µM at DGKα.

In the case of `CC#CCn1cc2c(n1)c(N1C[C@@H](C)N(C(C)c3ccc4ncc(C(F)F)nc4c3)C[C@@H]1C)cc(=O)n2C` (stereo partly drawn) [Compound A335, 2-(but-2-yn-1-yl)-7-((2S,5R)-4-(1-(3-(difluoromethyl)quinoxalin-6-yl)ethyl)-2,5-dimethylpiperazin-1-yl)-4-methyl-2,4-dihydro-5H-pyrazolo[4,3-b]pyridin-5-one], the IC50 on DGKζ was found to be 0.142 µM; against DGKα it was 0.61 µM.

As for `CC[C@H]1CN(C(C)c2cn3ccccc3n2)[C@H](CC)CN1c1cc(=O)n(C)c2cn(CC#N)nc12` (some centres unmarked) [Compound A388], the results for the IC50 at DGKζ and against DGKα were 1.25 µM and 1.39 µM, respectively.

In the case of `CC[C@H]1CN(C(C)c2cnccn2)[C@H](CC)CN1c1cc(=O)n(C)c2cn(CC#N)nc12` (some centres unmarked) [Compound A88], the IC50 on DGKζ came out at 9.44 µM; at DGKα, 0.118 µM.

For the compound `CC[C@@H]1CN(c2c(C#N)c(=O)[nH]c3cn(CC#N)nc23)[C@@H](C)CN1C(C)c1ccc2nccnc2c1` (single isomer, unassigned) [Compound A200b], the results for the IC50 at DGKζ and against DGKα were 5.38 µM and over 10 µM, respectively.

In the case of `CC[C@H]1CN(C(C)c2cccc(CO)c2)[C@H](CC)CN1c1cc(=O)n(C)c2cn(CC#N)nc12` (single isomer, unassigned) [Compound A121a], the results for the 50% inhibitory concentration (IC50) on DGKζ and against DGKα were 3.02 µM and 1.3 µM, respectively.

`CC[C@H]1CN(C(C)c2c(C)cnn2CC)[C@H](CC)CN1c1cc(=O)n(C)c2cn(CC#N)nc12` (single isomer, unassigned) [Compound A227a]: the IC50 at DGKζ and against DGKα was over 10 µM each time.

Consider `CC[C@H]1CN(C(C)c2ccc3c(c2)OCCO3)[C@H](CC)CN1c1cc(=O)n(C)c2cn(CC#N)nc12` (stereo partly drawn) [Compound A126, 2-(7-((2S,5R)-4-(1-(2,3-dihydrobenzo[b][1,4]dioxin-6-yl)ethyl)-2,5-diethylpiperazin-1-yl)-4-methyl-5-oxo-4,5-dihydro-2H-pyrazolo[4,3-b]pyridin-2-yl)acetonitrile], for which the IC50 worked out at 0.0072 µM on DGKζ and 0.449 µM on DGKα.

For `CC[C@H]1CN(C(C)c2c(C)cccc2C(F)(F)F)[C@H](CC)CN1c1cc(=O)n(C)c2cn(CC#N)nc12` (some centres unmarked) [Compound A117], the half-inhibitory concentration (IC50) on DGKζ was 3.87 µM; against DGKα, over 10 µM.

Regarding `CC[C@H]1CN([C@H](C)c2ccc3nccnc3c2)[C@H](CC)CN1c1cc(=O)n(CC(F)(F)F)c2cn(CC#N)nc12` [Compound A124], the IC50 on DGKζ and at DGKα was over 10 µM each time.

Consider `CC[C@H]1CN(C(C)c2ccc(F)cc2OC(F)(F)F)[C@H](CC)CN1c1cc(=O)n(C)c2cn(CC#N)nc12` (stereo partly drawn) [Compound A170, 2-(7-((2S,5R)-2,5-diethyl-4-(1-(4-fluoro-2-(trifluoromethoxy)phenyl)ethyl)piperazin-1-yl)-4-methyl-5-oxo-4,5-dihydro-2H-pyrazolo[4,3-b]pyridin-2-yl)acetonitrile], for which the IC50 on DGKζ was 0.887 µM; on DGKα it was over 10 µM.

Consider `[2H]C([2H])([2H])n1c(=O)cc(N2C[C@@H](CC)N(C(C)c3ccc(F)cc3C(F)(F)F)C[C@@H]2CC)c2nn(CC#N)cc21` (stereo partly drawn) [Compound A276, 2-(7-((2S,5R)-2,5-diethyl-4-(1-(4-fluoro-2-(trifluoromethyl)phenyl)ethyl)piperazin-1-yl)-4-(methyl-d3)-5-oxo-4,5-dihydro-2H-pyrazolo[4,3-b]pyridin-2-yl)acetonitrile], for which the IC50 was 0.131 µM on DGKζ and over 150 µM at DGKα.

Take `CC[C@H]1CN(C(C)c2ccc(F)cc2NC)[C@H](CC)CN1c1cc(=O)n(C)c2cn(CC#N)nc12` (some centres unmarked) [Compound A163]: the 50% inhibitory concentration (IC50) at DGKζ is 4.42 µM; against DGKα, over 10 µM.

`C[C@@H]1CN(c2cc(=O)n(C)c3cn(CC#N)nc23)[C@@H](C)CN1[C@@H](C)c1ccc2c(c1)OC(C)(C)CO2` [Compound A46b]: the 50% inhibitory concentration (IC50) on DGKζ was 0.021 µM; against DGKα, 2.57 µM.

Regarding `CC[C@H]1CN(C(C)c2ccc(F)cc2OC)[C@H](CC)CN1c1cc(=O)n(CCO)c2cn(CC#N)nc12` (single isomer, unassigned) [Compound A153b], the IC50 was 0.545 µM on DGKζ and over 10 µM at DGKα.

The term IC50 denotes the concentration at which inhibition is half-maximal.
